From US8865624B2, “Inhibitor for tobacco axillary bud growth and method for inhibiting tobacco axillary bud growth” (SDS Biotech K.K., priority 2010, dated 2014)
Where two headings read alike, the source gives them in different places. One block for each compound: values may come before it.

Tests used:
[1] = tested on: Tobacco Tsukuba 1 (flue-cured cultivar) axillary buds; test: Tobacco axillary bud growth inhibition test, flue-cured cultivar; type: in vivo, Nicotiana tabacum; conditions: for pest or weed control at 0.5 %: concentration of active ingredient 0.5%; for pest or weed control at 0.2 %: concentration of active ingredient 0.2%
Description: (§1) Tobacco seedlings of Tsukuba 1 (flue-cured cultivar) and Michinoku 1 (burley cultivar) were transplanted to 1/5000a Wagner pots filled with Kureha garden nursery soil. The plants were grown in a glasshouse, and the floral axis parts were removed at the time of single-flower bloom of tobacco (top pruning).
(§2) The formulations of the inhibitors for tobacco axillary bud growth obtained in Formulation Examples 1 to 10 above were each diluted with water to predetermined concentrations, and 20 ml of the water-diluted solutions of the respective inhibitors were separately sprayed using a contact-type axillary bud inhibitor spraying instrument equipped with a spot exhaust nozzle (Examples 1 to 11 and 12 to 22). In addition, butralin (trade name: Blue Ribbon) (Comparative Examples 1 and 3) and decyl alcohol (trade name: Contact) (Comparative Examples 2 and 4) were used for tests as comparative examples in the same manner as above. In the cases of both the flue-cured cultivar and burley cultivar, one plant was planted per pot, and the tests were carried out in duplicate.
(§3) For the respective cases, states of inhibition of axillary bud growth 28 days after the spraying were investigated together with untreated groups sprayed with no inhibitor, and axillary bud growth inhibition ratios were calculated by the following equation. Axillary bud growth inhibition ratio=(fresh weight of axillary buds per plant of untreated group−fresh weight of axillary buds per plant of treated group)÷(fresh weight of axillary buds per plant of untreated group)×100 [Math. 1]
(§4) The formulation of Formulation Example 1 (cafenstrole), Formulation Example 2 (thenylchlor) or Formulation Example 10 (propisochlor) above was diluted with water to predetermined concentrations and mixed with decyl alcohol (manufactured by Wako Pure Chemical Industries, Ltd.), 2-ethylhexanol (manufactured by Wako Pure Chemical Industries, Ltd.) or geraniol (manufactured by Wako Pure Chemical Industries, Ltd.) at predetermined concentrations, and the resultant was adjusted and used for tests (Examples 23 to 31 and 32 to 40). In addition, as comparative examples, the formulation of Formulation Example 1, […], or Formulation Example 10 diluted with water to predetermined concentrations (Comparative Examples 5 to 7 and 11 to 13) and decyl alcohol, 2-ethylhexanol or geraniol diluted with water to a predetermined concentration were used for tests (Comparative Examples 8 to 10 and 14 to 16).
(§5) The respective inhibitors were sprayed in the same manner as in Test Example 1, and states of inhibition of axillary bud growth 28 days after the spraying were investigated together with untreated groups sprayed with no inhibitor. Then, axillary bud growth inhibition ratios were calculated.
(§6) The formulation of Formulation Example 11 (cafenstrole), Formulation Example 12 (thenylchlor) or Formulation Example 13 (chlorthal-dimethyl) above was diluted with water to predetermined concentrations, and the resultant was mixed, adjusted and used for tests (Examples 41 to 58 and 59 to 76). In addition, as comparative examples, the formulation of Formulation Example 11, Formulation Example 12 or Formulation Example 13 diluted with water to predetermined concentrations (Comparative Examples 21 to 29 and 34 to 42), butralin (trade name: Blue Ribbon) (Comparative Examples 17, 18, 30, and 31) and decyl alcohol (trade name: Contact) (Comparative Examples 19, 20, 32, and 33) were used for tests in the same manner as above.

[2] = tested on: Tobacco Michinoku 1 (burley cultivar) axillary buds; test: Tobacco axillary bud growth inhibition test, burley cultivar; type: in vivo; conditions: Nicotiana tabacum, 672 h, 28 days after the spraying; for pest or weed control at 2.6 %: concentration of active ingredient 2.6%; for pest or weed control at 0.5 %: concentration of active ingredient 0.5%; for pest or weed control at 0.03 %: concentration of active ingredient 0.03%; for pest or weed control at 0.1 %: concentration of active ingredient 0.1%; for pest or weed control at 0.05 %: concentration of active ingredient 0.05%; for pest or weed control at 0.35 %: concentration of active ingredient 0.35%; for pest or weed control at 0.2 %: concentration of active ingredient 0.2%
Description: as §1, §2, §3, §4, §5, §6

[3] = tested on: Tobacco Tsukuba 1 (flue-cured cultivar) leaves (first to fourth leaves from the top); test: Harmful effect of inhibitor on tobacco leaves, flue-cured cultivar; type: in vivo, Nicotiana tabacum
Description: as §1, §2
(§7) Further, the presence or absence of the harmful effect of each inhibitor was evaluated in one of the following four categories depending on the degrees of growth inhibition, gangrene, change in color, deformation and the like of leaves (first to fourth leaves from the top).
(§8) Large: A severely harmful effect was observed.
(§9) Middle: A clearly harmful effect was observed.
(§10) Small: A slightly harmful effect was observed.
(§11) Absent: No harmful effect was observed.
as §6, §5

[4] = tested on: Tobacco Michinoku 1 (burley cultivar) leaves (first to fourth leaves from the top); test: Harmful effect of inhibitor on tobacco leaves, burley cultivar; type: in vivo, Nicotiana tabacum
Description: as §1, §2, §7, §8, §9, §10, §11, §6, §5

[5] = Nicotiana tabacum, 672 h, Table 3, flue-cured cultivar, 28 days after the spraying, read-out: Axillary bud growth inhibition ratio
[6] = Table 2, burley cultivar, read-out: Axillary bud growth inhibition ratio
[7] = Table 4, burley cultivar, read-out: Axillary bud growth inhibition ratio
[8] = Table 6, burley cultivar, read-out: Axillary bud growth inhibition ratio
[9] = Nicotiana tabacum, 672 h, Table 1, flue-cured cultivar, concentration of active ingredient 0.1%, 28 days after the spraying, read-out: Axillary bud growth inhibition ratio
[10] = Table 1, flue-cured cultivar, concentration of active ingredient 0.1%
[11] = Table 2, burley cultivar, concentration of active ingredient 0.1%
[12] = Nicotiana tabacum, 672 h, read-out: Axillary bud growth inhibition ratio
[13] = read-out: Axillary bud growth inhibition ratio, Table 2, burley cultivar
[14] = read-out: Axillary bud growth inhibition ratio, Table 6, burley cultivar

SMILES: CCCCCCCCCCO [Decyl alcohol, decyl alcohol]
pest or weed control at 2.6 % ([1]; Nicotiana tabacum, 672 h, Table 1, flue-cured cultivar, concentration of active ingredient 2.6%, 28 days after the spraying, read-out: Axillary bud growth inhibition ratio): 91%
pest or weed control at 0.5 % [1, 5]: 42%
pest or weed control at 0.03 % ([1]; Nicotiana tabacum, 672 h, Table 5, flue-cured cultivar, concentration of active ingredient 0.03%, 28 days after the spraying, read-out: Axillary bud growth inhibition ratio): 0%
Axillary bud growth inhibition ratio ([1]; Table 5, flue-cured cultivar, concentration of active ingredient 2.6%, 28 days after the spraying): 91%
pest or weed control at 2.6 % [2, 6]: 92%
pest or weed control at 0.5 % [2, 7]: 46%
pest or weed control at 0.03 % [2, 8]: 0%
pest or weed control at 2.6 % [2, 8]: 94%

SMILES: CCC1(CC2(c3cccc(Cl)c3)CO2)C(=O)c2ccccc2C1=O (stereo not shown) [Indanofan]
pest or weed control at 0.1 % [1, 9]: 100%
pest or weed control at 0.1 % [2, 6]: 95%
Harmful effect of inhibitor ([3]; in vivo): Absent
Harmful effect of inhibitor ([4]; in vivo): Absent

SMILES: CCCCOCN(C(=O)CCl)c1c(CC)cccc1CC [Butachlor, butachlor]
pest or weed control at 0.1 % [1, 9]: 100%
pest or weed control at 0.1 % [2, 6]: 96%
Harmful effect of inhibitor ([3]; in vivo): Absent
Harmful effect of inhibitor ([4]; in vivo): Absent

SMILES: CCCCC(CC)CO (stereo not shown) [2-Ethylhexanol, 2-ethylhexanol]
pest or weed control at 0.5 % [1, 5]: 21%
pest or weed control at 0.5 % [2, 7]: 34%

SMILES: COCC(C)N(C(=O)CCl)c1c(C)csc1C (stereo not shown) [Dimethenamid, dimethenamid]
pest or weed control at 0.1 % [1, 9]: 92%
pest or weed control at 0.1 % [2, 6]: 94%
Harmful effect of inhibitor ([3]; in vivo): Absent
Harmful effect of inhibitor ([4]; in vivo): Absent

SMILES: CC(C)=CCC/C(C)=C/CO [Geraniol, geraniol]
pest or weed control at 0.5 % [1, 5]: 30%
pest or weed control at 0.5 % [2, 7]: 28%

SMILES: CCc1cccc(CC)c1N(COC)C(=O)CCl [Alachlor, alachlor]
pest or weed control at 0.1 % [1, 9]: 97%
pest or weed control at 0.1 % [2, 6]: 91%
Harmful effect of inhibitor [3, 10]: Absent
Harmful effect of inhibitor [4, 11]: Absent

SMILES: CCN(CC)C(=O)n1cnc(S(=O)(=O)c2c(C)cc(C)cc2C)n1 [Cafenstrole]
pest or weed control at 0.002 % [1, 12]: 17%
pest or weed control at 0.005 % [1, 12]: 20%
pest or weed control at 0.01 % [1, 12]: 23%
pest or weed control at 0.05 % [1, 12]: 76%
pest or weed control at 0.1 % [1, 12]: 100%
pest or weed control at 0.1 % [2, 13]: 99%
pest or weed control at 0.05 % ([2]; read-out: Axillary bud growth inhibition ratio, Table 4, burley cultivar): 72%
pest or weed control at 0.002 % ([2]; read-out: Axillary bud growth inhibition ratio, Table 6, burley cultivar, concentration of active ingredient 0.002%): 15%
pest or weed control at 0.005 % ([2]; read-out: Axillary bud growth inhibition ratio, Table 6, burley cultivar, concentration of active ingredient 0.005%): 19%
pest or weed control at 0.01 % ([2]; read-out: Axillary bud growth inhibition ratio, Table 6, burley cultivar, concentration of active ingredient 0.01%): 25%
Harmful effect of inhibitor [3, 10]: Absent
Harmful effect of inhibitor ([3]; Table 5, flue-cured cultivar, concentration of active ingredient 0.002%): Absent
Harmful effect of inhibitor ([3]; Table 5, flue-cured cultivar, concentration of active ingredient 0.005%): Absent
Harmful effect of inhibitor ([3]; Table 5, flue-cured cultivar, concentration of active ingredient 0.01%): Absent
Harmful effect of inhibitor [4, 11]: Absent
Harmful effect of inhibitor ([4]; Table 6, burley cultivar, concentration of active ingredient 0.002%): Absent
Harmful effect of inhibitor ([4]; Table 6, burley cultivar, concentration of active ingredient 0.005%): Absent
Harmful effect of inhibitor ([4]; Table 6, burley cultivar, concentration of active ingredient 0.01%): Absent

SMILES: CCCOCCN(C(=O)CCl)c1c(CC)cccc1CC [Pretilachlor]
pest or weed control at 0.1 % [1, 9]: 93%
pest or weed control at 0.1 % [2, 6]: 92%
Harmful effect of inhibitor [3, 10]: Absent
Harmful effect of inhibitor [4, 11]: Absent

SMILES: CCC(C)Nc1c([N+](=O)[O-])cc(C(C)(C)C)cc1[N+](=O)[O-] (stereo not shown) [Butralin, butralin]
pest or weed control at 0.03 % [1, 12]: 44%
pest or weed control at 0.35 % [1, 12]: 98%
Axillary bud growth inhibition ratio ([1]; Table 5, flue-cured cultivar, concentration of active ingredient 0.35%, 28 days after the spraying): 98%
pest or weed control at 0.35 % [2, 13]: 96%
pest or weed control at 0.03 % [2, 14]: 48%
pest or weed control at 0.35 % [2, 14]: 97%

Harmful effect of inhibitor ([3]; in vivo): Absent
Harmful effect of inhibitor ([4]; in vivo): Absent
SMILES: COC(=O)c1c(Cl)c(Cl)c(C(=O)OC)c(Cl)c1Cl [Chlorthal-dimethyl, chlorthal-dimethyl]
pest or weed control at 0.05 % ([1]; Nicotiana tabacum, 672 h, Table 5, flue-cured cultivar, concentration of active ingredient 0.05%, 28 days after the spraying, read-out: Axillary bud growth inhibition ratio): 43%
pest or weed control at 0.1 % ([1]; Nicotiana tabacum, 672 h, Table 5, flue-cured cultivar, concentration of active ingredient 0.1%, 28 days after the spraying, read-out: Axillary bud growth inhibition ratio): 78%
pest or weed control at 0.2 % ([1]; Nicotiana tabacum, 672 h, Table 5, flue-cured cultivar, 28 days after the spraying, read-out: Axillary bud growth inhibition ratio): 88%
pest or weed control at 0.05 % [2, 8]: 39%
pest or weed control at 0.1 % [2, 8]: 71%
pest or weed control at 0.2 % [2, 8]: 82%

SMILES: CCc1cccc(C)c1N(C(=O)CCl)C(C)COC (stereo not shown) [Metolachlor, metolachlor]
pest or weed control at 0.1 % [1, 9]: 95%
pest or weed control at 0.1 % [2, 6]: 91%
Harmful effect of inhibitor [3, 10]: Absent
Harmful effect of inhibitor [4, 11]: Absent

Harmful effect of inhibitor ([3]; in vivo): Absent
Harmful effect of inhibitor ([4]; in vivo): Absent
SMILES: CCc1cccc(C)c1N(COC(C)C)C(=O)CCl [Propisochlor, propisochlor]
pest or weed control at 0.1 % [1, 9]: 86%
pest or weed control at 0.2 % ([1]; Nicotiana tabacum, 672 h, Table 1, flue-cured cultivar, 28 days after the spraying, read-out: Axillary bud growth inhibition ratio): 98%
Axillary bud growth inhibition ratio ([1]; Table 3, flue-cured cultivar, concentration of active ingredient 0.1%, 28 days after the spraying): 86%
pest or weed control at 0.1 % [2, 6]: 84%
pest or weed control at 0.2 % [2, 6]: 95%
pest or weed control at 0.1 % [2, 7]: 83%
